Measured values from patent publication US20170183318A1, “AMIDE COMPOUNDS, METHODS FOR PREPARATION, AND USE THEREOF AS AGENTS FOR THE TREATMENT AND PREVENTION OF DISEASES CAUSED BY RNA- AND/OR DNA-CONTAINING VIRUSES, AND CONCOMITANT DISEASES” (OBSCHESTVO S OGRANICHENNOI OTVETSTVENNOSTIYU …, priority 2014, published 2017).
Read-outs that look alike come from different tables or passages of the source.

Experiments:
hRV = experiment: Antiviral activity against rhinovirus in mice (infectious titer in lungs titrated in Hela cells; body and lung weight); assay type: in vivo; settings: 30 mg/kg orally once daily for 4 days from 12 h after infection; lung suspension titrated in Hela cells
Procedure: In this study, author's strain of hRV was used. The animals were infected with the virus intranasally under brief ether anesthesia in a volume of 0.05 ml/mouse.
To determine the efficiency of the compounds against hRV in the experimental model in vivo, the virus was previously titrated in mice, then the mice were infected, and the studied compounds were administered orally. The infectious titer was assessed on day 4 after infection by titration of a lung suspension in Hela cell culture. The infectious titer of the hRV virus in the lugs of the experimental group was determined in comparison with that in the control group by TCID.
The studied compounds and placebo (physiological solution) were orally administered to the mice once daily for 4 days, starting 12 hours after infection. The compounds were administered at a dose of 30 mg/kg of animal body weight. Intact animals served as a negative control and were kept under the same conditions as the experimental animals in a separate room.
The antiviral activity of the studied compounds was determined on day 4 after infection by a reduction of the virus infectious activity determined in Hela cell culture.

[1] = test system: HCoV (antigenically similar to prototype strain OC-43); experiment: Murine model of coronavirus infection (mortality); assay type: in vivo; settings: Mus musculus, po, 336 h; HCoV intranasally, C57BL/6 mice; 30 mg/kg orally once daily for 5 days from 24 h after infection; 14 days; 20 mice per group; virus control 60.0
Procedure: In the study, author's strain HCoV was used, identified as group 2 virus antigenically similar to prototype strain OC-43. The efficiency of the compounds was studied in C57BL/6 mice by comparing mortality rates in the treated and control mice for 14 days after infection. Each experimental group comprised 20 mice. The animals were infected intranasally in a volume of 0.03 ml/mouse under brief ether anesthesia.
The studied compounds were administered to the animals orally at a dose of 30 mg/kg of body weight. The animals of the control group were administered physiological solution. Preparations were administered once daily for 5 days. The treatment of animals was started 24 hours after infection.

[2] = test system: Coxsackie A2 virus (strain HCXV A2); experiment: Antiviral activity against Coxsackie virus in vivo (mortality and life expectancy of infected mice); settings: for inhibition in vivo at 30 mg/kg / mortality at 30 mg/kg: Mus musculus, po; for inhibition in vivo at 30 mg/kg: 168 h, read-out: Protective index (%); for mortality at 30 mg/kg: 360 h, read-out: Total mortality, %; for Average life expectancy (days), Compared with control: difference vs virus control; for Average life expectancy (days), Relative: mice infected with 10LD50 HCXV A2
Procedure, shortened: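 White mice (6–7 g), 14–15 per group, infected i.m. with 10LD50 of HCXV A2; compounds 30 mg/kg orally once daily for 7 days from 24 h post-infection, saline placebo. Mortality and weight recorded daily over 15 days versus untreated infected group.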

human virus hRSV = experiment: Antiviral activity against mouse-adapted RS virus (body weight; viral titer in lungs titrated in Hep-2 cells); assay type: in vivo, mice; settings: compounds 30 mg/kg, Ribavirin 40 mg/kg, orally once daily for 5 days, n = 6
[3] = 30 mg/kg orally once daily for 7 days, vs virus control
[4] = 30 mg/kg orally once daily for 7 days

Structure (SMILES) | Infectious titer of the virus in lungs lg TCID50 (4 days after infection) (hRV) | mortality at 30 mg/kg [1] | inhibition in vivo at 30 mg/kg [2, 3] | mortality at 30 mg/kg [2] | Average life expectancy (days), Compared with control [2, 4] | Average life expectancy (days), Relative [2, 4] | Body weight of the mice on day 5 after infection with hRSV (M ± SD) (human virus hRSV; day 5) | Body weight of the mice on day 7 after infection with hRSV (M ± SD) (human virus hRSV; day 7) | inhibition in vivo at 30 mg/kg [2]
O=C(O)CCCC(=O)NCCC1CCCN1 (stereo not shown) [Compound 2] | 0.1 ± 0.05 lg TCID50 | 30% | 55.6% | 28.6% | +20.1 days | 32.3 days | – | – | –
O=C(O)CCCC(=O)NCCC1CCCCN1 (stereo not shown) [Compound 6] | 0.4 ± 0.15 lg TCID50 | 35% | – | – | – | – | 16.47 ± 0.26 | 17.02 ± 0.29 | –
O=C(O)CCCC(=O)NCCCc1cccs1 [Compound 34] | 0.5 ± 0.20 lg TCID50 | 45% | 22.2% | 50% | +8.3 days | 20.5 days | – | – | –
CC(Cc1cnc[nH]1)NC(=O)CCCC(=O)O (stereo not shown) [Compound 115] | 0.05 ± 0.05 lg TCID50 | 30% | – | – | – | – | – | – | –
O=C(O)CCCC(=O)NCCCc1c[nH]cn1 [Compound 118] | 0 ± 0 lg TCID50 | 40% | – | – | – | – | – | – | –
CC(C)N(CCc1cnc[nH]1)C(=O)CCCC(=O)O [Compound 141] | 0 ± 0 lg TCID50 | 35% | – | – | – | – | – | – | –
Cc1csc(CCNC(=O)CCCC(=O)O)n1 [Compound 197] | 0.37 ± 0.06 lg TCID50 | 45% | – | 42.9% | +11.2 days | 22.2 days | – | – | 33.3%
O=C(O)CCCC(=O)NC(Cc1c[nH]cn1)C(=O)O (stereo not shown) [Compound 251] | 0 ± 0 lg TCID50 | 30% | – | 42.9% | +10.0 days | 22.2 days | – | – | 33.3%
O=C(O)CCCC(=O)NCCc1nc2ccccc2s1 [Compound 275] | 0.45 ± 0.1 lg TCID50 | 40% | 40% | 42.9% | +9.5 days | 22.4 days | – | – | –
